Results published in patent US12448369B2 (Edgewise Therapeutics, Inc., priority 2023, dated 2025).

How the values were obtained:
[1] = biological target: T1, Porcine ventricle myofibrils (ventricular myosin ATPase) (Sus scrofa, UniProt P79293); assay: Myofibril ATPase assay, porcine ventricle myofibrils; assay type: biochemical, porcine (Yucatan minipigs); settings: porcine ventricle myofibrils; Y75 value
T1 construct: Myofibrils from porcine cardiac muscle was isolated from the left ventricle of Yucatan minipigs; tissue Exemplar Genetics; host or cells: left ventricle of Yucatan minipigs, myofibrils prepared in house
Summary of the method: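 Read-out: A340 kinetic, NADH consumption coupled to ADP via PK-LDH, 75 min. Yucatan minipig LV myofibrils, pCa buffer (PIPES/CaCl2/EGTA, pH 7.0). Linear-regression slope (mAU/min), vehicle = 100%, 4PL fit; Y75 or Y125 reported.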

[2] = system: Rabbit Psoas myofibrils (skeletal myosin ATPase); assay: Myofibril ATPase assay, rabbit psoas (skeletal) myofibrils; assay type: biochemical; settings: rabbit psoas myofibrils; Y75 value
Summary of the method: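 Values derive from concentration–response fits of NADH consumption rates at 340 nm, normalized to vehicle-only wells, as Y75 or Y125. Myofibril ATP turnover was linked to NADH via PK/LDH in Ca/EGTA-buffered PIPES, pH 7.0, and read over 75 min.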

[3] = system: Porcine atria myofibrils (atrial myosin ATPase); assay: Myofibril ATPase assay, porcine atria myofibrils; assay type: biochemical; settings: porcine atria myofibrils; Y75 value (75% activity relative to no compound)
Summary of the method: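 Atrial myofibril ATPase measured by NADH-coupled absorbance at 340 nm; vehicle-normalized slopes fitted to give Y75 or Y125 values.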

T1 sequence (P79293 whole entry): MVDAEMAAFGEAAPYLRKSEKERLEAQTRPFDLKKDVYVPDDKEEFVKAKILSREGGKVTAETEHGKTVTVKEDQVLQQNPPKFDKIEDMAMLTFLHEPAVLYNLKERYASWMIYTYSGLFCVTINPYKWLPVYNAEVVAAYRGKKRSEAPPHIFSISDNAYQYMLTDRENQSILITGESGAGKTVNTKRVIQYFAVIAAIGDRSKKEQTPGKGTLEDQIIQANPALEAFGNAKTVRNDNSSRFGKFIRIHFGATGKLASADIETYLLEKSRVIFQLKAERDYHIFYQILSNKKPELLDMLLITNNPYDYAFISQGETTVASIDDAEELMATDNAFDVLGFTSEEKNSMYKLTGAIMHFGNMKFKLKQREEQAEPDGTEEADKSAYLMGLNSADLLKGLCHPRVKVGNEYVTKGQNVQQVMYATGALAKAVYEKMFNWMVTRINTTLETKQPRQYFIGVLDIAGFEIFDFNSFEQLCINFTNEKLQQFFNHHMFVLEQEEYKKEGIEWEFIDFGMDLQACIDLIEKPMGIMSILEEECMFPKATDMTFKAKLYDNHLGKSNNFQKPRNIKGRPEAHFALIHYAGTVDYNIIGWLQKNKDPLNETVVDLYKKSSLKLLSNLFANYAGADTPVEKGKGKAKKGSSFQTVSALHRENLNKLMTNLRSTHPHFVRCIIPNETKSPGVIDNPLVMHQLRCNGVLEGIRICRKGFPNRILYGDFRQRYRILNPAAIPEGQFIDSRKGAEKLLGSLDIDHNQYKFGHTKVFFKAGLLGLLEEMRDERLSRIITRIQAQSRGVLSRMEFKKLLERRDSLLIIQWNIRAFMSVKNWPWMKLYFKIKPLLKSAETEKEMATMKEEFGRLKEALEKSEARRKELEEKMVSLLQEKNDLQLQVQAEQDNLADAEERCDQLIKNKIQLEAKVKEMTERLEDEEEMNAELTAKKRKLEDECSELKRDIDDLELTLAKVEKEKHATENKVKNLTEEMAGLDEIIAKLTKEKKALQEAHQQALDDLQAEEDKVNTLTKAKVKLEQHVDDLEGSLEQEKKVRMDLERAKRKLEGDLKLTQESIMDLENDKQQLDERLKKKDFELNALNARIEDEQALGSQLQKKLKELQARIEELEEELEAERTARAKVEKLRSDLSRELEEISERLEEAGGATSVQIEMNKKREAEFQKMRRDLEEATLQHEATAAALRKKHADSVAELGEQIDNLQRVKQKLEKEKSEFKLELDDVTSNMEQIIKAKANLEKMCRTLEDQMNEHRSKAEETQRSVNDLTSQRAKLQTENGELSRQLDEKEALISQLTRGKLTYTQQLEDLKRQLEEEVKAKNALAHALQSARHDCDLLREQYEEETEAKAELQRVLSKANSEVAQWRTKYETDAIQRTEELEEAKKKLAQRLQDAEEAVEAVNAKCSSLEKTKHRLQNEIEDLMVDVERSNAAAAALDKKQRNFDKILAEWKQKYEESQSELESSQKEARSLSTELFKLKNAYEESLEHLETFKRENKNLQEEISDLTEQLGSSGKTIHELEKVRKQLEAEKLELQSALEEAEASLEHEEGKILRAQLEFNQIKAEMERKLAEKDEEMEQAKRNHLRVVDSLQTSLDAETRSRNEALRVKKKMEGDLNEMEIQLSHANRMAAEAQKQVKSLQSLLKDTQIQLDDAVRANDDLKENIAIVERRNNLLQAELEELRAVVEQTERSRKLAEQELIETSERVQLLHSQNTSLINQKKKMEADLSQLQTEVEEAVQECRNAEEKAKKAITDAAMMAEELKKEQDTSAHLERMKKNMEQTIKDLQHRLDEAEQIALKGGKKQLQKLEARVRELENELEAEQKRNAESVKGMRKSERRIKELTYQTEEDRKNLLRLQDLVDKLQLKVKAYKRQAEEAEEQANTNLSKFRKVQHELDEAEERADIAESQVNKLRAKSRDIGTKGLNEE

Compound	Ventricular EC25 [1]	Skeletal EC25 [2]	Atrial EC25 [3]
Cc1nccc2[nH]c(=O)c(CC(=O)N[C@@H](CO)c3ncc(F)cc3F)c(C)c12 (single isomer, unassigned) [compound 308]	12.24 µM	1.82 µM	1.07 µM
Cc1nccc2[nH]c(=O)c(CC(=O)N[C@H](CO)c3cccnc3)c(C)c12 (single isomer, unassigned) [compound 311]	100.00 µM	100.00 µM	100.00 µM
Cc1nccc2[nH]c(=O)c(CC(=O)N[C@@H](CO)c3cccnc3)c(C)c12 (single isomer, unassigned) [compound 312]	100.00 µM	100.00 µM	100.00 µM
Cc1cccc([C@H](CO)NC(=O)Cc2c(C)c3c(C)nccc3[nH]c2=O)c1 (single isomer, unassigned) [compound 313]	100.00 µM	100.00 µM	100.00 µM
Cc1nccc2[nH]c(=O)c(CC(=O)N[C@H](CO)c3ccccn3)c(C)c12 (single isomer, unassigned) [compound 316]	100.00 µM	100.00 µM	100.00 µM
Cc1nccc2[nH]c(=O)c(CC(=O)N[C@@H](CO)c3ccccn3)c(C)c12 (single isomer, unassigned) [compound 317]	100.00 µM	100.00 µM	100.00 µM
Cc1nccc2[nH]c(=O)c(CC(=O)N[C@H](C)c3cccnc3)c(C)c12 (single isomer, unassigned) [compound 322]	100.00 µM	100.00 µM	100.00 µM
Cc1nccc2[nH]c(=O)c(CC(=O)N[C@@H](C)c3cccnc3)c(C)c12 (single isomer, unassigned) [compound 323]	100.00 µM	100.00 µM	100.00 µM
Cc1nccc2[nH]c(=O)c(CC(=O)N[C@H](C)c3ccccn3)c(C)c12 (single isomer, unassigned) [compound 324]	100.00 µM	100.00 µM	100.00 µM
Cc1nccc2[nH]c(=O)c(CC(=O)N[C@@H](C)c3ccccn3)c(C)c12 (single isomer, unassigned) [compound 325]	100.00 µM	1.57 µM	100.00 µM
Cc1nccc2[nH]c(=O)c(CC(=O)N[C@H](C)c3ccc(O)cc3)c(C)c12 (single isomer, unassigned) [compound 328]	100.00 µM	100.00 µM	100.00 µM
Cc1nccc2[nH]c(=O)c(CC(=O)N[C@@H](C)c3ccc(O)cc3)c(C)c12 (single isomer, unassigned) [compound 329]	100.00 µM	100.00 µM	100.00 µM
Cc1nccc2[nH]c(=O)c(CC(=O)N[C@H](C)c3cccc(O)c3)c(C)c12 (single isomer, unassigned) [compound 330]	100.00 µM	100.00 µM	100.00 µM
Cc1nccc2[nH]c(=O)c(CC(=O)N[C@@H](C)c3cccc(O)c3)c(C)c12 (single isomer, unassigned) [compound 331]	100.00 µM	100.00 µM	100.00 µM
Cc1nccc2[nH]c(=O)c(CC(=O)N[C@H](C)c3ccncc3)c(C)c12 (single isomer, unassigned) [compound 333]	100.00 µM	100.00 µM	100.00 µM
Cc1nccc2[nH]c(=O)c(CC(=O)N[C@@H](C)c3ccncc3)c(C)c12 (single isomer, unassigned) [compound 334]	100.00 µM	100.00 µM	100.00 µM
Cc1ccc([C@@H](CO)NC(=O)Cc2c(C)c3c(C)nccc3[nH]c2=O)cc1 (single isomer, unassigned) [compound 335]	100.00 µM	26.39 µM	100.00 µM
Cc1ccc([C@H](CO)NC(=O)Cc2c(C)c3c(C)nccc3[nH]c2=O)cc1 (single isomer, unassigned) [compound 336]	100.00 µM	100.00 µM	69.32 µM
Cc1ccccc1[C@@H](CO)NC(=O)Cc1c(C)c2c(C)nccc2[nH]c1=O (single isomer, unassigned) [compound 337]	100.00 µM	100.00 µM	100.00 µM
Cc1ccccc1[C@H](CO)NC(=O)Cc1c(C)c2c(C)nccc2[nH]c1=O (single isomer, unassigned) [compound 338]	100.00 µM	27.39 µM	8.69 µM
Cc1nccc2[nH]c(=O)c(CC(=O)N[C@H](CCO)c3ccc(F)cc3F)c(C)c12 (single isomer, unassigned) [compound 341]	100.00 µM	100.00 µM	100.00 µM
Cc1nccc2[nH]c(=O)c(CC(=O)N[C@@H](CCO)c3ccc(F)cc3F)c(C)c12 (single isomer, unassigned) [compound 342]	52.00 µM	11.14 µM	3.65 µM
C[C@H](NC(=O)[C@@H](C)c1cc2c(Br)nccc2[nH]c1=O)c1ccc(F)cc1F (single isomer, unassigned) [compound 344]	90.74 µM	0.23 µM	9.52 µM
Cc1c([C@@H](C)C(=O)N[C@@H](C)c2ccc(F)cc2F)c(=O)[nH]c2ccnc(OC(F)(F)F)c12 (single isomer, unassigned) [compound 347]	20.36 µM	0.35 µM	0.94 µM

Results, then the compound that gave them:

Ventricular EC25 [1]	Skeletal EC25 [2]	Atrial EC25 [3]	Compound
100.00 µM	100.00 µM	100.00 µM	COc1cccc([C@@H](C)NC(=O)Cc2c(C)c3c(C)nccc3[nH]c2=O)n1 (single isomer, unassigned) [compound 309]
100.00 µM	100.00 µM	100.00 µM	COc1cccc([C@H](C)NC(=O)Cc2c(C)c3c(C)nccc3[nH]c2=O)n1 (single isomer, unassigned) [compound 310]
100.00 µM	100.00 µM	100.00 µM	COc1cccc([C@@H](C)NC(=O)Cc2c(C)c3c(C)nccc3[nH]c2=O)c1 (single isomer, unassigned) [compound 314]
100.00 µM	100.00 µM	100.00 µM	COc1cccc([C@H](C)NC(=O)Cc2c(C)c3c(C)nccc3[nH]c2=O)c1 (single isomer, unassigned) [compound 315]
100.00 µM	27.68 µM	100.00 µM	COc1ccccc1[C@@H](C)NC(=O)Cc1c(C)c2c(C)nccc2[nH]c1=O (single isomer, unassigned) [compound 318]
100.00 µM	100.00 µM	100.00 µM	COc1ccccc1[C@H](C)NC(=O)Cc1c(C)c2c(C)nccc2[nH]c1=O (single isomer, unassigned) [compound 319]
100.00 µM	34.09 µM	100.00 µM	Cc1nccc2[nH]c(=O)c(CC(=O)N[C@H](C)c3ccccc3O)c(C)c12 (single isomer, unassigned) [compound 320]
100.00 µM	100.00 µM	100.00 µM	Cc1nccc2[nH]c(=O)c(CC(=O)N[C@@H](C)c3ccccc3O)c(C)c12 (single isomer, unassigned) [compound 321]
100.00 µM	100.00 µM	100.00 µM	Cc1ccccc1[C@@H](C)NC(=O)Cc1c(C)c2c(C)nccc2[nH]c1=O (single isomer, unassigned) [compound 326]
9.24 µM	0.67 µM	3.29 µM	Cc1ccccc1[C@H](C)NC(=O)Cc1c(C)c2c(C)nccc2[nH]c1=O (single isomer, unassigned) [compound 327]
100.00 µM	100.00 µM	100.00 µM	Cc1cccc([C@@H](C)NC(=O)Cc2c(C)c3c(C)nccc3[nH]c2=O)c1 (single isomer, unassigned) [compound 339]
100.00 µM	100.00 µM	36.97 µM	Cc1cccc([C@H](C)NC(=O)Cc2c(C)c3c(C)nccc3[nH]c2=O)c1 (single isomer, unassigned) [compound 340]
